Experimental data taken from PubChem BioAssay (NCI).
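All cell lines were grown in 96-well plates and treated with compound for 48 hours. At the TGI there is no net growth.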

What was measured:
Experiment in all cases: growth of human tumour cells (NCI), 48 h
OVCAR-3 ovarian = system: OVCAR-3 ovarian
CAKI-1 renal = system: CAKI-1 renal
T-47D breast = system: T-47D breast
OVCAR-8 ovarian = system: OVCAR-8 ovarian
UACC-62 melanoma = system: UACC-62 melanoma
MCF7 breast = system: MCF7 breast
OVCAR-4 ovarian = system: OVCAR-4 ovarian
786-0 renal = system: 786-0 renal
DU-145 prostate = system: DU-145 prostate
NCI-H226 lung = system: NCI-H226 lung
SK-MEL-2 melanoma = system: SK-MEL-2 melanoma

Row | Structure (SMILES) | TGI (OVCAR-3 ovarian) | TGI (CAKI-1 renal) | TGI (T-47D breast) | TGI (OVCAR-8 ovarian) | TGI (UACC-62 melanoma) | TGI (MCF7 breast) | TGI (OVCAR-4 ovarian) | TGI (786-0 renal) | TGI (DU-145 prostate) | TGI (NCI-H226 lung) | TGI (SK-MEL-2 melanoma)
1 | CC(C)CC1C(=O)NCCC(NC(=O)C(Cc2ccc(OC(C)(C)C)cc2)NC(=O)OC(C)(C)C)C(=O)NC(Cc2ccccc2)C(=O)NC(Cc2ccccc2)NC1=O (stereo not drawn) | 19.9 µM | > 100 µM | 22.2 µM | 20.6 µM | 31.1 µM | 52.3 µM | 34.6 µM | 4.92 µM | > 100 µM | 21.2 µM | 
2 | COC(=O)CC(C#N)(OP1(=O)OC(c2ccccc2)C(C)N1C)c1ccccc1 (stereo not drawn) | 42.6 µM | 69.3 µM | 96.7 µM | 67.1 µM | 56.9 µM | > 100 µM |  | 83 µM | > 100 µM |  | 95 µM
3 | CCc1cc2c(oc3cc4ccccc4cc32)c(=O)[nH]1 | > 10 µM |  |  | > 10 µM |  |  | > 10 µM | > 10 µM | > 10 µM | > 10 µM | > 10 µM
4 | O=C(C=P(c1ccccc1)(c1ccccc1)c1ccccc1)c1ccc(-c2cccc([N+](=O)[O-])c2)s1 | > 100 µM | > 100 µM |  | > 100 µM | > 100 µM | > 100 µM | > 100 µM | > 100 µM | > 100 µM |  | 
5 | O=C1NC(=O)C(c2c[nH]c3ccccc23)=C1c1cnc[nH]1 | > 100 µM | > 100 µM | > 100 µM | > 100 µM |  | > 100 µM | > 100 µM | > 100 µM | > 100 µM | 9.4 µM | > 100 µM
6 | COc1ccc(N2C(=O)/C(=C(\C)c3cc4ccccc4oc3=O)N=C2c2cc([N+](=O)[O-])ccc2Cl)cc1 | > 100 µM | > 100 µM |  | > 100 µM | > 100 µM |  | > 100 µM |  |  | > 100 µM | > 100 µM
7 | CCCCc1c(N(C)C)c(OC(C)=O)c(-c2cn(C)c3ccccc23)oc1=O | 67.9 µM | > 100 µM | > 100 µM |  | 40.7 µM | 39.6 µM | > 100 µM | > 100 µM | > 100 µM | 36.8 µM | 40.7 µM
8 | CC(C)C(=O)[C@@]1(C)SC[C@H]2CCN=C21 | > 100 µM | > 100 µM |  | > 100 µM | > 100 µM | > 100 µM | > 100 µM | > 100 µM | > 100 µM | > 100 µM | 
9 | CN(CC(=O)O)c1ncc2c(n1)-c1ccccc1SC2 |  | > 100 µM |  | > 100 µM | > 100 µM | > 100 µM | > 100 µM | > 100 µM | > 100 µM |  | > 100 µM
10 | CCN(CC)CC1CCCCCCCCCCC1=O (stereo not drawn) | > 100 µM |  |  | > 100 µM | > 100 µM |  | > 100 µM | > 100 µM |  | > 100 µM | > 100 µM
11 | CCOC(=O)c1c(-c2ccc(OC)cc2)c(C#N)c(=S)n(C2OC(COC(C)=O)C(OC(C)=O)C(OC(C)=O)C2OC(C)=O)c1-c1ccccc1 (stereo not drawn) | > 100 µM | > 100 µM | > 100 µM |  | > 100 µM | > 100 µM | > 100 µM | > 100 µM | > 100 µM |  | > 100 µM
12 | CC(C)(Br)C(Br)CCC1(C2CO2)CO1 (stereo not drawn) | > 5 µM | > 5 µM | > 5 µM | > 5 µM |  | > 5 µM | > 5 µM | > 5 µM | > 5 µM | > 5 µM | 
13 | Cc1cc(C)n(C(=C(C(Cl)=C(Cl)Cl)[N+](=O)[O-])n2nc(C)cc2C)n1 | 10.4 µM | 8.38 µM | 23.1 µM | 9.22 µM | 14.9 µM | 8.2 µM | 7.47 µM |  | 14.9 µM | 26 µM | 4.18 µM
14 | CC(C)(C)OC(=O)N1CCc2[nH][nH]c(=O)c2C1 | > 100 µM | > 100 µM |  | > 100 µM | > 100 µM | > 100 µM | > 100 µM | > 100 µM | > 100 µM | > 100 µM | 
15 | COC(=O)c1ccc(C(=O)NC(Cc2ccc(Oc3cc(CC(NC(=O)c4ccccc4C(=O)OC)C(=O)OC)ccc3OC)cc2)C(=O)OC)cc1 (stereo not drawn) | > 100 µM | > 100 µM | > 100 µM | > 100 µM |  | > 100 µM | > 100 µM | > 100 µM | > 100 µM | > 100 µM | > 100 µM
16 | Nc1ncnc2c1ccn2C/C=C\CO | > 100 µM | > 100 µM | > 100 µM | > 100 µM | > 100 µM | > 100 µM | > 100 µM | > 100 µM | > 100 µM |  | > 100 µM
17 | O=c1[nH]c2c(nc1NC13CC4CC(CC(C4)C1)C3)c(=O)oc1ccccc12 | > 100 µM | 46 µM |  | > 100 µM | > 100 µM |  |  | > 100 µM |  | 85.6 µM | > 100 µM
18 | CCCCC1=NNC(=O)C1 | > 100 µM | > 100 µM | > 100 µM | > 100 µM | > 100 µM | > 100 µM | > 100 µM | > 100 µM |  | > 100 µM | > 100 µM
19 | COc1cc(C2SCC(=O)N2c2ccccn2)cc(OC)c1OC (stereo not drawn) | > 100 µM | > 100 µM |  | > 100 µM | > 100 µM | > 100 µM | > 100 µM | > 100 µM | > 100 µM | > 100 µM | > 100 µM
20 | OCC1OC(c2cccc3cc(O)c(O)cc23)CC1O (stereo not drawn) | > 100 µM |  | > 100 µM | > 100 µM | > 100 µM | > 100 µM | > 100 µM | > 100 µM | > 100 µM | > 100 µM | > 100 µM
21 | CC(=O)Nc1ccc(C(=O)NN2C(=O)CSC2c2ccc([N+](=O)[O-])cc2)cc1 (stereo not drawn) | > 100 µM |  | > 100 µM | > 100 µM | > 100 µM | > 100 µM | > 100 µM | > 100 µM | > 100 µM | > 100 µM | > 100 µM
22 | CCN(CC)CCC(=O)/C=C/c1ccccc1 | 12.1 µM | 14.1 µM |  | 52.5 µM |  | 10.6 µM | > 94.4 µM | 7.62 µM | > 73.9 µM | 44.9 µM | 65.5 µM
